In patent US11446314B2, “Immunoablative therapies” (AVM Biotechnology LLC, priority 2018, dated 2022):
Entries after “also recorded” stand apart in the source; their conditions may differ.

Columns and labels:
RBC = conditions: doses of about 24 mg/50 kg; cited from earlier work
lymphocytes [1] = experiment: Flow cytometry of blood cells in human patients before and 48 hours after oral 3 mg/kg dexamethasone base
Source text: FIG. 14. […] Each patient's pre-treatment values are connected to post-treatment values by a connecting line. CD4+ cells are also CD3+. CD8+ cells are also CD3+.
FIG. 15. […] Each patient's pre-treatment values are connected to post-treatment values by a connecting line. Tregs are identified by being CD3+CD4+CD25+FoxP3+. B lymphocytes are identified by being CD3−CD19+.
FIG. 16. […] Each patient's pre-treatment values are connected to post-treatment values by a connecting line. NK cells are identified by being CD3−CD16/56+. HSCs are identified by being CD34+CD38−.
(§1) Blood was drawn before drug treatment and 48 hours post-treatment for CBC analysis and flow cytometry to determine lymphocyte and other blood cell populations. Serum was analyzed for cytokine levels.

[2] = tested on: CD4+, CD8+, Tregs and B cells; experiment: Preliminary dose escalation studies in naïve mouse and rat models; format: in vivo
[3] = Double-blind controlled horse trial; format: in vivo; conditions: horses, acute high dose, out to 70 days
[4] = tested on: peripheral blood lymphocytes
IL-2, IL-15, IL-6 = tested on: IL-2, IL-15, IL-6
Experimental: as §1

spleen cellularity = conditions: cited from earlier work
B lymphocytes = experiment: Treatment of patients with autoimmune diseases (Examples 5 and 9); format: in vivo, human; conditions: patient with an autoimmune disease, acute high dose
Experimental: Acute high dose prednisone doses range from about 19 mg/kg to about 150 mg/kg, with doses between about 56 mg/kg and about 112 mg/kg being preferred, with a repeat (second) administration of this dose 24 hours later and an optional repeat (third) administration of this dose 48-72 hours after the initial dose.

pemphigus = conditions: 100 mgs by 2 hour IV infusion daily for 3 days, every 28 days until cure; cited from earlier work
hematopoietic stem cells = experiment: Live hematopoietic stem cells in naïve mice; conditions: 48 hours, low or high doses vs placebo
[5] = tested on: bone marrow mesenchymal stem cells; experiment: Human bone marrow MSC number by CFU-F; conditions: oral 3 mg/kg dexamethasone base, 48 hours, vs 31 historical controls
[6] = tested on: peripheral blood T and B lymphocytes; conditions: single oral 0.24 mg/kg dose; cited from earlier work
germinal centers [7] = conditions: rats IV or PO 20, 40, 80 mg/kg (HED 3.23, 6.45, 12.9 mg/kg), 48 hours
Experimental: Column plots of the area per spleen of BCL-6 staining of 5 micron fixed spleen sections as a measure of germinal center numbers given as average per section are shown.
Formalin-fixed spleens were cross-sectioned in 5 pieces, trimmed and embedded in paraffin, sectioned and stained with hematoxylin and eosin (H&E). Measurements of the periarteriolar lymphoid sheath (PAL) diameter and the width of the marginal zone (MZ) in areas of white pulp that had PAL with the greatest diameter were measured using an ocular micrometer. BCL-6 immunohistochemical staining in rat spleens was evaluated to determine GC area using automated image analysis methods.

[8] = tested on: bone marrow mesenchymal stem cells; experiment: Horse sternal bone marrow MSC number and trilineage differentiation; format: in vivo; conditions: horses, 6 mg/kg HED, one hour IV infusion, 48 hours
marginal zone = conditions: rats IV or PO 20, 40, 80 mg/kg (HED 3.23, 6.45, 12.9 mg/kg), 48 hours
Experimental: Formalin-fixed spleens were cross-sectioned in 5 pieces, trimmed and embedded in paraffin, sectioned and stained with hematoxylin and eosin (H&E). Measurements of the periarteriolar lymphoid sheath (PAL) diameter and the width of the marginal zone (MZ) in areas of white pulp that had PAL with the greatest diameter were measured using an ocular micrometer.

lymphocytes [9] = experiment: Lymphodepletion in C57B1 female mice; format: in vivo, mouse; conditions: oral, HED 12, 15, 18 mg/kg tested
[10] = Clinical chemistries in mice; format: in vivo, mouse
germinal centers [11] = experiment: FITC-PNA staining of germinal centers in mouse spleen sections; format: in vivo; conditions: for HED dose from which germinal centers are reduced: acute dose, about; for Germinal Center staining intensity in spleen: 48 hours before spleen harvest
Experimental: FIG. 2. […] A graph of column plots of average Germinal Center staining intensity measured using immunofluorescent staining of fresh thick spleen sections stained with FITC-PNA is shown. Immunofluorescent intensity was calculated using thresholding and MetaMorph Image Analysis. Columns are average plus SEM.
The spleens were removed, weighed wet, and then fixed in 10% formalin. Subsequently the spleens were sectioned via proprietary methods and then incubated with FITC-PNA at 4 degC for 24 hours, washed, placed on slides and immunofluorescent images were captured. Metamorph software was used to quantify the immunofluorescent signal.

[12] = pharmacodynamic (biologic); cited from earlier work
[13] = tested on: spleen weights or germinal centers; conditions: mice, po daily for 13 weeks; cited from earlier work
[14] = oral 3 mg/kg dexamethasone base, 48 hours

C[C@H]1C[C@H]2[C@@H]3CCC4=CC(=O)C=C[C@]4(C)[C@@]3(F)[C@@H](O)C[C@]2(C)[C@@]1(O)C(=O)CO [betamethasone]
effect on RBC (RBC): reduces RBC

C[C@@H]1C[C@H]2[C@@H]3CCC4=CC(=O)C=C[C@]4(C)[C@@]3(F)[C@@H](O)C[C@]2(C)[C@@]1(O)C(=O)CO [dexamethasone]
patients who showed lymphocytosis (lymphocytes [1]; 3 mg/kg HED): 50% | hematopoietic stem cells (CD34+CD38−) (lymphocytes [1]; [14]): spared | patients who depleted CD3, CD4 and CD8 positive lymphocytes (lymphocytes [1]; [14]): 2 of 4 | patients who depleted NK cells (lymphocytes [1]; [14]): 3 of 4 | patients who depleted Tregs and B lymphocytes (lymphocytes [1]; [14]): 1 of 4 | patients with lymphocytosis response in CD3 and CD4 lymphocytes (lymphocytes [1]; oral 3 mg/kg, 48 hours): 2 of 4 | patients with lymphocytosis response in CD8, B lymphocytes and NK cells (lymphocytes [1]; oral 3 mg/kg, 48 hours): 1 of 4 | patients who responded with lymphodepletion (lymphocytes [1]; oral 3 mg/kg, 48 hours, un-normalized flow cytometry data): 2 of the 4 | effects of oral dosing compared to IV dosing ([2]; acute high dose): comparable effects | reduction in CD4+, CD8+, Tregs and B cells population ([2]; high doses, 48 hours after administration): ~98% | lymphodepletion ([2]; high-dose dexamethasone, naïve mouse and rat models): complete lymphodepletion | adverse side effects [3]: no adverse side effects were observed | CD3+ T lymphocytes ([4]; IP 10 mg/kg (HED 0.81 mg/kg) on day −6, −4, −2, control 3370): 2441 live events | B lymphocytes (CD3−CD19+ cells) in the peripheral blood ([4]; IP 10 mg/kg (HED 0.81 mg/kg) on day −6, −4, −2, vehicle control 10680): 3733 live events | reduction of B lymphocytes ([4]; IP 10 mg/kg (HED 0.81 mg/kg) on day −6, −4, −2, vs vehicle, significant): 65% | CD3+CD4+CD25+FoxP3+ Tregs ([4]; same dosing, control 198): 70 live events | CD3+CD8 T lymphocytes ([4]; same dosing, control 1318): 1277 live events | CD3+CD4+ T lymphocytes ([4]; same dosing, control 1779): 902 live events | dose at which plasma IL-2 and IL-15 cytokine elevations are observed (IL-2, IL-15, IL-6; dexamethasone base, HED, about): ≥ 3 mg/kg | patients with elevated levels of IL-2 (IL-2, IL-15, IL-6; [14]): 3 of 4 | patients with elevated levels of IL-15 (IL-2, IL-15, IL-6; [14]): 4 of 4 | patients with increased serum IL-2 and/or IL-15 levels (IL-2, IL-15, IL-6; [14]): 100% | levels of plasma IL-2 and IL-15 cytokines (IL-2, IL-15, IL-6; small number of human osteoarthritis patients, acute high dose): elevates | lymphodepletion in comparison to total body irradiation (spleen cellularity; HED 0.8 mg/kg on day −6, −4, −2): lymphodepleted equivalently to 5Gy TBI | reduced spleen cellularity (spleen cellularity; IP 10 mg/kg (HED 0.81 mg/kg) on day −6, −4, −2 before ACT): 99% | reduction of B lymphocyte numbers (B lymphocytes): greater than 90% | reduction of memory B cell populations (B lymphocytes): greater than 90% | relapse rate (pemphigus): 15% | number of live hematopoietic stem cells (hematopoietic stem cells): did not significantly alter | ileac crest bone marrow MSC number (CFU-F per ml) [5]: almost two fold; also recorded: about twice as high | suppression of peripheral blood T and B lymphocytes [6]: 80% | time at which recovery begins [6]: 12 h | time to normal levels [6]: ≤ 24 h | germinal center area (BCL-6 staining) in spleen (germinal centers [7]): reduced at all dexamethasone doses | sternal BM MSC stem cell number [8]: doubled | marginal zone area (width) in spleen (marginal zone): reduced at all dexamethasone doses | dose above which lymphoablation is completely evident (lymphocytes [9]): above 18 mg/kg | glucose level ([10]; after acute high dose dexamethasone): not elevated over the normal range | clinical chemistry levels including cholesterol and total protein ([10]; mice, acute oral HED doses 6-12 mg/kg): do not elevate clinical chemistry levels out of normal range | HED dose from which germinal centers are reduced (germinal centers [11]): ≥ 6 mg/kg | HED dose from which germinal centers are reduced (germinal centers [11]; listed as Dexamethasone): ≥ 3 mg/kg | Germinal Center staining intensity in spleen (germinal centers [11]; mice, HED 6 mg/kg): Germinal center reduction is apparent | Germinal Center staining intensity in spleen (germinal centers [11]; mice, HED 9 and 12 mg/kg): not significantly reduced until HED of 9 and 12 mg/kg doses; also recorded: significantly reduced | FITC-PNA immunofluorescence (germinal centers) in spleen (germinal centers [11]; mice, IP HED 9.3 mg/kg dexamethasone base, 96 hours before spleen harvest): almost no immunofluorescent signal

C[C@]12C=CC(=O)C=C1CC[C@@H]1[C@@H]2C(=O)C[C@@]2(C)[C@H]1CC[C@]2(O)C(=O)CO [prednisone]
biologic half-life [12]: about 20 hours | reduction of B lymphocyte numbers (B lymphocytes): greater than 90% | reduction of memory B cell populations (B lymphocytes): greater than 90% | dose above which spleen weights or germinal centers are significantly impacted [13]: over 2.5 mg/kg
